Values quoted from earlier work, collected in patent US7666888B2, “Substituted azole aromatic heterocycles as inhibitors of 11β-HSD-1” (Amgen Inc., priority 2006, dated 2010).

Assays:
normal subjects = conditions: ingestion
bone nodule formation = conditions: glucocorticoid effect

CC1(C)[C@@H](OC(=O)CCC(=O)O)CC[C@]2(C)[C@H]3C(=O)C=C4[C@@H]5C[C@@](C)(C(=O)O)CC[C@]5(C)CC[C@@]4(C)[C@]3(C)CC[C@@H]12 [carbenoxolone]
Hepatic insulin sensitivity (healthy human volunteers): improved | reduce the intraocular pressure (normal subjects): 20% | negative effect on bone nodule formation (bone nodule formation): blocked
